Results as given in US8501940B2, “Tetrahydrocinnoline derivatives” (Hoffmann-La Roche Inc., priority 2008, dated 2013).

Biological target: T1, human 11beta-HSD1 (Homo sapiens, UniProt P28845)
T1 construct: made in house; host or cells: HEK293 cells (ATCC CRL-1573), transient transfection with a pcDNA3 construct; microsomal fraction used
T1 sequence (P28845 whole entry): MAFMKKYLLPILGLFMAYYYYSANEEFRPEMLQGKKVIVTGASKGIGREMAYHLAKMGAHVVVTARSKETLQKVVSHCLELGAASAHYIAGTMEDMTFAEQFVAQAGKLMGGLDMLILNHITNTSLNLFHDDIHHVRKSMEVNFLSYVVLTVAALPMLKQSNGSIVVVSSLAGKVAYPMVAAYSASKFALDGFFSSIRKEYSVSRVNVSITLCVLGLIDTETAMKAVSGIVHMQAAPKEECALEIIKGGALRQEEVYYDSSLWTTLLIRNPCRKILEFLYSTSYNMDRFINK
Experiment: Microsome assay (cortisone to cortisol conversion, ELISA detection)
Assay type: biochemical
Conditions: microsomes from HEK293 cells transiently expressing human 11beta-HSD1; Cortisone 50-200 nM, NADPH 1 mM; 60 min at 37° C.; cortisol by ELISA; read-out: h 11-beta-HSD 1 IC50
Experimental: The cDNA encoding the human 11beta-HSD1 protein was cloned into the expression vector pcDNA3 (Stratagene). This construct (for details see Alex Odermatt et al.; J Biol Chem., 1999, Vol. 274, Issue 40, 28762-28770) was used to transiently express the protein in HEK293 cells (ATCC number: CRL-1573, described in Graham, F. L., Smiley, J., Russell, W. C., Nairn, R.; (1977)) using lipofectamine. 48 h after transfection cells were washed twice with ice-cold PBS (Phosphate buffered Saline). To 1 volume of cell suspension in PBS 2 volumes of ice-cold lysis buffer (50 mM Tris; pH7.5; 1 mM EDTA; 100 mM NaCl) were added. The cells were lysed by Potter-homogenization (20 strokes). The resulting homogenate was sonicated with a tip sonicator (10% output; 2×30 sec.) and cleared by a low speed centrifugation (10 min×9000 g; 4° C.). The microsomal fraction was collected by a high speed centrifugation (60 min×110,000 g). The resulting pellet was resuspended in storage buffer (20 mM Tris pH 7.5; 1 mM EDTA; 10% Glycerol) and the centrifugation was repeated. The resulting pellet containing the microsomal fraction was again taken up into storage buffer and aliquots were kept frozen in liquid Nitrogen until use.
Microsomes isolated from HEK293 cells transiently expressing human 11beta-HSD1 (for details see above) were incubated in assay buffer (100 mM NaCl; 1 mM EDTA; 1 mM EGTA; 1 mM MgCl; 250 mM Sucrose; 20 mM Tris pH 7.4; Cortisone 50-200 nM and NADPH 1 mM) together with different concentrations of test substances. After 60 min. of incubation at 37° C. the assay was stopped by heating to 80° C. (5 min.) and by addition of the inhibitor Carbenoxolone (1 uM). The amount of Cortisol produced in this assay was determined using a commercially available, ELISA-based Cortisol-detection kit (Distributed by Assay Design, Inc.). Inhibitors were characterized by there IC50 values, e.g. the concentration at which the production of cortisol was 50% reduced.
With `Fc1ccc(-c2cc3c(nn2)C2CCC3C23CCCC3)c(Cl)c1` (stereo not drawn) [Example 28, (5′RS,8′SR)-3′-(2-chloro-4-fluorophenyl)-5′,6′,7′,8′-tetrahydrospiro[cyclopentane-1,9′-[1′,2′]diaza[5′,8′]methanocinnoline]] the IC50 was 1 pM. `Cc1ccccc1-c1cc2c(nn1)C1CCC2C12CCCC2` (stereo not drawn) [Example 29, (5′RS,8′SR)-3′-(2-methylphenyl)-5′,6′,7′,8′-tetrahydrospiro[cyclopentane-1,9′-[1′,2′]diaza[5′,8′]methanocinnoline]] showed an IC50 of 1 pM. `Cc1c(-c2cc3c(nn2)C2CCC3C23CCCC3)cnn1-c1ccccc1` (stereo not drawn) [Example 30, (5′RS,8′SR)-3′-(5-methyl-1-phenyl-1H-pyrazol-4-yl)-5′,6′,7′,8′-tetrahydrospiro[cyclopentane-1,9′-[1′,2′]diaza[5′,8′]methanocinnoline]] gave an IC50 of 62 pM. For `Cc1c(-c2cc3c(nn2)C2CCC3C23CCCC3)cnn1C(C)(C)C` (stereo not drawn) [Example 31, (5′RS,8′SR)-3′-(1-tert-butyl-5-methyl-1H-pyrazol-4-yl)-5′,6′,7′,8′-tetrahydrospiro[cyclopentane-1,9′-[1′,2′]diaza[5′,8′]methanocinnoline]], the IC50 was 13 pM. In the case of `FC(F)(F)c1ccc(Cl)cc1-c1cc2c(nn1)C1CCC2C12CCCC2` (stereo not drawn) [Example 32, (5′RS,8′SR)-3′-[5-chloro-2-(trifluoromethyl)phenyl]-5′,6′,7′,8′-tetrahydrospiro[cyclopentane-1,9′-[1′,2′]diaza[5′,8′]methanocinnoline]], the IC50 is reported as 6 pM. Work on “(5′RS,8′SR)-3′-(2-methylphenyl)-5′,6′,7′,8′-tetrahydrospiro[cyclopropane-1,9′-[1′,2′]diaza[5′,8′]methanocinnoline] [Example 26]” yielded an IC50 of 5 pM.

Tested on: men
Experiment: not given
Conditions: treatment with carbenoxolone in men; cited from earlier work
In the case of `CC1(C)[C@@H](OC(=O)CCC(=O)O)CC[C@]2(C)[C@H]3C(=O)C=C4[C@@H]5C[C@@](C)(C(=O)O)CC[C@]5(C)CC[C@@]4(C)[C@]3(C)CC[C@@H]12` [carbenoxolone], the insulin sensitivity is listed as “increase in insulin sensitivity”.
